Measurements published in patent US11123432B2, “Antimicrobial insect repellent composition” (YEDITEPE UNIVERSITESi, priority 2016, dated 2021).
Like-named read-outs stand apart in the source and are kept apart here.

How the values were obtained:
Adenovirus Type 5 (Av-5) = assay type: cell-based, Human adenovirus type 5 Adenoid 75 strain; details: for reduction in virus titer: AV-5 (Table 4), ratio 1/1, 20° C., clean and contaminated media; for Ratio of reduction in virus titer: EBAAP; for EBAAP virüs titer: untreated virus titer 6.0
[1] = result of many toxicity experiments; cited from earlier work
Poliovirus Type 1 (PV-1) = assay type: cell-based, Poliovirus type 1 Chat strain; details: for reduction in virus titer: PV-1 (Table 5), ratio 1/1, 20° C., clean and contaminated media; for Ratio of reduction in virus titer: EBAAP; for EBAAP virus titer: untreated virus titer 5.0
enteric bacteria = details: Bailey et al. (1980); cited from earlier work
Penicillium expansium = details: Qin et al. (2007); cited from earlier work
[2] = AV-5, 5 minutes, contaminated medium
[3] = AV-5, 60 minutes, contaminated medium
[4] = PV-1, 5 minutes, contaminated medium
[5] = PV-1, 60 minutes, contaminated medium

With CCCCN(CCC(=O)OCC)C(C)=O [EBAAP, Ethyl Butyl acetylaminopropionate] the “reduction in virus titer” value (Adenovirus Type 5 (Av-5); 5 minutes) was 2 log, the “reduction in virus titer” value (Adenovirus Type 5 (Av-5); 60 minutes) was 4 log and the “Ratio of reduction in virus titer” value (Adenovirus Type 5 (Av-5); AV-5, 5 minutes, clean medium) was 2.0 Logarithmic TCID50. The “EBAAP virüs titer” value (Adenovirus Type 5 (Av-5); AV-5, 5 minutes, clean medium) was 4.0 Logarithmic TCID50, the “Ratio of reduction in virus titer” value (Adenovirus Type 5 (Av-5); [2]) was 2.0 Logarithmic TCID50 and the “EBAAP virüs titer” value (Adenovirus Type 5 (Av-5); [2]) was 4.0 Logarithmic TCID50. The “Ratio of reduction in virus titer” value (Adenovirus Type 5 (Av-5); AV-5, 60 minutes, clean medium) was 4.0 Logarithmic TCID50, the “EBAAP virüs titer” value (Adenovirus Type 5 (Av-5); AV-5, 60 minutes, clean medium) was 2.0 Logarithmic TCID50 and the “Ratio of reduction in virus titer” value (Adenovirus Type 5 (Av-5); [3]) was 4.0 Logarithmic TCID50. For the same molecule, the “EBAAP virüs titer” value (Adenovirus Type 5 (Av-5); [3]) was 2.0 Logarithmic TCID50, the active against virus (Adenovirus Type 5 (Av-5); AV-5, used undiluted, 20° C., 60 minute application) was 99.9% and the “irritation on the skin” value [1] was “does not cause irritation on the skin”. The “reduction in virus titer” value (Poliovirus Type 1 (PV-1); 5 minutes) was 2 log, the “reduction in virus titer” value (Poliovirus Type 1 (PV-1); 60 minutes) was 4 log and the “Ratio of reduction in virus titer” value (Poliovirus Type 1 (PV-1); PV-1, 5 minutes, clean medium) was 2.0 Logarithmic TCID50. The EBAAP virus titer (Poliovirus Type 1 (PV-1); PV-1, 5 minutes, clean medium) was 3.0 Logarithmic TCID50, the “Ratio of reduction in virus titer” value (Poliovirus Type 1 (PV-1); [4]) was 2.0 Logarithmic TCID50 and the EBAAP virus titer (Poliovirus Type 1 (PV-1); [4]) was 3.0 Logarithmic TCID50. For the same molecule, the “Ratio of reduction in virus titer” value (Poliovirus Type 1 (PV-1); PV-1, 60 minutes, clean medium) was 4.0 Logarithmic TCID50, the EBAAP virus titer (Poliovirus Type 1 (PV-1); PV-1, 60 minutes, clean medium) was 1.0 Logarithmic TCID50 and the “Ratio of reduction in virus titer” value (Poliovirus Type 1 (PV-1); [5]) was 4.0 Logarithmic TCID50. It also gave an EBAAP virus titer (Poliovirus Type 1 (PV-1); [5]) of 1.0 Logarithmic TCID50 and an active against virus (Poliovirus Type 1 (PV-1); PV-1, used undiluted, 20° C., 60 minute application) of 99.9%.

In the case of OB(O)O [boric acid], the antibacterial activity (enteric bacteria) is given as “has antibacterial activity”.

For [K+].[K+].[O-]B1OB2OB([O-])OB(O1)O2 [potassium tetraborate], the “minimum concentration preventing micelle growth” value (Penicillium expansium) is given as 0.1%.
